# Marks after values point to notes of the source that are not given here. Numbered stars: 1 amine (or outer) side, 2 acyl side, 3 side chain; on linkers, the order of the positions; unused ones are H or OH. Square brackets hold non-standard residues; d marks the D form. Side chains are listed from the residue outwards. Peptide text beside a SMILES is read from it. * marks the point of attachment. C20 diacid = O=C(O)CCCCCCCCCCCCCCCCCCC(=O)*; γGlu = O=C(O)[C@H](CCC(=O)[*:2])N[*:1]; AEEA = NCCOCCOCC(=O)O; Aib = CC(C)(N)C(=O)O
# Assays:
# [1] = tested on: diet-induced-obesity mice; experiment: Body weight of diet-induced-obesity mice, subcutaneous administration once every 3 days; assay type: in vivo, C57BL/6 mice
# [2] = tested on: diet-induced-obesity mice; experiment: Viscera/brain ratio for fat mass in different parts of diet-induced obesity mice; assay type: in vivo, C57BL/6 mice
# Experimental: High-fat food-induced-obesity male C57BL/6 mice (weighing 35-55 g, aged 10-12 weeks, purchased from Shanghai Jiesijie Laboratory Animal Co., Ltd.) were tested. […] According to the experimental design, the body weight of each mouse was measured and recorded on day 0, day 3, day 6, and so on to day 27, the average body weight of each group of mice was calculated, and body weight change curves were plotted by taking the body weight on the first day as the standard. At the end, the fat and other visceral organs of each part of the mice were taken out and weighed, and the viscera/brain ratio for fat in each part of each mouse was calculated. The effect of the drug on the fat was determined by comparing the change in the viscera/brain ratio for fat of different parts of each group of mice.
compound,measurement,setting,value
CC[C@H](C)[C@H](NC(=O)[C@H](CCCCN)NC(=O)[C@H](CCC(=O)O)NC(=O)[C@H](CCCCNC(=O)COCCOCCNC(=O)COCCOCCNC(=O)CC[C@H](NC(=O)CCCCCCCCCCCCCCCCCCC(=O)O)C(=O)O)NC(=O)[C@H](Cc1ccc(O)cc1)NC(=O)[C@@H](NC(=O)[C@H](CO)NC(=O)[C@H](Cc1ccc(O)cc1)NC(=O)[C@H](CC(=O)O)NC(=O)[C@H](CO)NC(=O)[C@@H](NC(=O)[C@H](Cc1ccccc1)NC(=O)[C@@H](NC(=O)CNC(=O)[C@H](CCC(=O)O)NC(=O)C(C)(C)NC(=O)[C@@H](N)Cc1ccc(O)cc1)[C@@H](C)O)[C@@H](C)O)[C@@H](C)CC)C(=O)N[C@@H](C)C(=O)N[C@@H](C)C(=O)N[C@@H](CCC(N)=O)C(=O)N[C@@H](CCC(=O)O)C(=O)N[C@@H](Cc1ccccc1)C(=O)N[C@H](C(=O)N[C@@H](CC(N)=O)C(=O)N[C@@H](Cc1c[nH]c2ccccc12)C(=O)N[C@@H](CC(C)C)C(=O)N[C@@H](CC(C)C)C(=O)N[C@@H](C)C(=O)NCC(=O)NCC(=O)N1CCC[C@H]1C(=O)N[C@@H](CO)C(=O)N[C@@H](CO)C(=O)NCC(=O)N[C@@H](C)C(=O)N1CCC[C@H]1C(=O)N1CCC[C@H]1C(=O)N1CCC[C@H]1C(=O)N[C@@H](CO)C(N)=O)C(C)C [Compound 18#] (H-Y[Aib]EGTFTSDYSIYK([AEEA-AEEA-γGlu-C20 diacid])EKIAAQEFVNWLLAGGPSSGAPPPS-NH2),rate of change in body weight,"[1]; 3 nmol/kg, day 0 (before administration)",0%
same,rate of change in body weight,"[1]; 3 nmol/kg, day 1 after administration",−5 ± 0.6%
same,rate of change in body weight,"[1]; 3 nmol/kg, day 2 after administration",−6.3 ± 1 ^ %
same,rate of change in body weight,"[1]; 3 nmol/kg, day 3 after administration",−5.8 ± 1.9%
same,rate of change in body weight,"[1]; 3 nmol/kg, day 4 after administration",−9.1 ± 2.1 %
same,rate of change in body weight,"[1]; 3 nmol/kg, day 5 after administration",−10.3 ± 3.2 %
same,rate of change in body weight,"[1]; 3 nmol/kg, day 6 after administration",−10 ± 4.4 %
same,rate of change in body weight,"[1]; 3 nmol/kg, day 7 after administration",−13 ± 5.3 %
same,rate of change in body weight,"[1]; 3 nmol/kg, day 8 after administration",−13.9 ± 6.1 %
same,rate of change in body weight,"[1]; 3 nmol/kg, day 9 after administration",−13.9 ± 7.4 %
same,rate of change in body weight,"[1]; 3 nmol/kg, day 10 after administration",−16.6 ± 7.8 %
same,rate of change in body weight,"[1]; 3 nmol/kg, day 11 after administration",−16.4 ± 8.2 %
same,rate of change in body weight,"[1]; 3 nmol/kg, day 12 after administration",−15.7 ± 8.6 %
same,rate of change in body weight,"[1]; 3 nmol/kg, day 13 after administration",−18.2 ± 8.2 %
same,rate of change in body weight,"[1]; 3 nmol/kg, day 14 after administration",−17.1 ± 7.2 %
same,rate of change in body weight,"[1]; 3 nmol/kg, day 15 after administration",−15.7 ± 7.4 %
same,rate of change in body weight,"[1]; 3 nmol/kg, day 16 after administration",−18.6 ± 7 %
same,rate of change in body weight,"[1]; 3 nmol/kg, day 17 after administration",−18.3 ± 7***^ %
same,rate of change in body weight,"[1]; 3 nmol/kg, day 18 after administration",−17.9 ± 7.1 %
same,rate of change in body weight,"[1]; 3 nmol/kg, day 19 after administration",−20.5 ± 7.5 %
same,rate of change in body weight,"[1]; 3 nmol/kg, day 20 after administration",−19.8 ± 7.4 %
same,rate of change in body weight,"[1]; 3 nmol/kg, day 21 after administration",−17.8 ± 7.3 %
same,rate of change in body weight,"[1]; 3 nmol/kg, day 22 after administration",−19.3 ± 8.2 %
same,rate of change in body weight,"[1]; 3 nmol/kg, day 23 after administration",−19.1 ± 7.6 %
same,rate of change in body weight,"[1]; 3 nmol/kg, day 24 after administration",−17.3 ± 7.4 %
same,rate of change in body weight,"[1]; 3 nmol/kg, day 25 after administration",−19.9 ± 7.6 %
same,rate of change in body weight,"[1]; 3 nmol/kg, day 26 after administration",−18.8 ± 8 %
same,rate of change in body weight,"[1]; 3 nmol/kg, day 27 after administration",−16.1 ± 7.6 %
same,rate of change in body weight,"[1]; 3 nmol/kg, day 28 after administration",−19.2 ± 8***^ %
same,body weight reduced,"[1]; 10 nmol/kg dose group, day 27",more than 20.0%
same,rate of change in body weight,"[1]; 10 nmol/kg, day 0 (before administration)",0%
same,rate of change in body weight,"[1]; 10 nmol/kg, day 1 after administration",−6.2 ± 1.1%
same,rate of change in body weight,"[1]; 10 nmol/kg, day 2 after administration",−8.6 ± 0.9 %
same,rate of change in body weight,"[1]; 10 nmol/kg, day 3 after administration",−9.4 ± 1.6 %
same,rate of change in body weight,"[1]; 10 nmol/kg, day 4 after administration",−12.7 ± 2.4 %
same,rate of change in body weight,"[1]; 10 nmol/kg, day 5 after administration",−14.5 ± 3.3 %
same,rate of change in body weight,"[1]; 10 nmol/kg, day 6 after administration",−15 ± 5.3 %
same,rate of change in body weight,"[1]; 10 nmol/kg, day 7 after administration",−18.3 ± 6.3 %
same,rate of change in body weight,"[1]; 10 nmol/kg, day 8 after administration",−20.1 ± 8***^ %
same,rate of change in body weight,"[1]; 10 nmol/kg, day 9 after administration",−20.3 ± 9.3 %
same,rate of change in body weight,"[1]; 10 nmol/kg, day 10 after administration",−23.4 ± 9.8 %
same,rate of change in body weight,"[1]; 10 nmol/kg, day 11 after administration",−23.9 ± 10.7 %
same,rate of change in body weight,"[1]; 10 nmol/kg, day 12 after administration",−23.5 ± 11.4 %
same,rate of change in body weight,"[1]; 10 nmol/kg, day 13 after administration",−26.4 ± 11.8 %
same,rate of change in body weight,"[1]; 10 nmol/kg, day 14 after administration",−25.1 ± 12.1 %
same,rate of change in body weight,"[1]; 10 nmol/kg, day 15 after administration",−23.4 ± 9***^ %
same,rate of change in body weight,"[1]; 10 nmol/kg, day 16 after administration",−26.6 ± 9.7 %
same,rate of change in body weight,"[1]; 10 nmol/kg, day 17 after administration",−25.7 ± 8.7 %
same,rate of change in body weight,"[1]; 10 nmol/kg, day 18 after administration",−24.6 ± 8.2 %
same,rate of change in body weight,"[1]; 10 nmol/kg, day 19 after administration",−27.5 ± 7.6 %
same,rate of change in body weight,"[1]; 10 nmol/kg, day 20 after administration",−27.3 ± 7.2 %
same,rate of change in body weight,"[1]; 10 nmol/kg, day 21 after administration",−24.8 ± 6.7 %
same,rate of change in body weight,"[1]; 10 nmol/kg, day 22 after administration",−28.1 ± 7.4 %
same,rate of change in body weight,"[1]; 10 nmol/kg, day 23 after administration",−27.1 ± 7***^ %
same,rate of change in body weight,"[1]; 10 nmol/kg, day 24 after administration",−26 ± 7.1 %
same,rate of change in body weight,"[1]; 10 nmol/kg, day 25 after administration",−28.5 ± 8.8 %
same,rate of change in body weight,"[1]; 10 nmol/kg, day 26 after administration",−27.8 ± 8.3 %
same,rate of change in body weight,"[1]; 10 nmol/kg, day 27 after administration",−24.8 ± 8.4 %
same,rate of change in body weight,"[1]; 10 nmol/kg, day 28 after administration",−28.2 ± 8.3 %
same,rate of change in body weight,"[1]; 100 nmol/kg, day 0 (before administration)",0%
same,rate of change in body weight,"[1]; 100 nmol/kg, day 1 after administration",−6.3 ± 0.5%
same,rate of change in body weight,"[1]; 100 nmol/kg, day 2 after administration",−10.9 ± 0.8 %
same,rate of change in body weight,"[1]; 100 nmol/kg, day 3 after administration",−13.2 ± 1 %
same,rate of change in body weight,"[1]; 100 nmol/kg, day 4 after administration",−15.7 ± 0.9 %
same,rate of change in body weight,"[1]; 100 nmol/kg, day 5 after administration",−19.2 ± 1.3 %
same,rate of change in body weight,"[1]; 100 nmol/kg, day 6 after administration",−21.8 ± 2.3 %
same,rate of change in body weight,"[1]; 100 nmol/kg, day 7 after administration",−24.7 ± 3.3 %
same,rate of change in body weight,"[1]; 100 nmol/kg, day 8 after administration",−27.6 ± 3.7 %
same,rate of change in body weight,"[1]; 100 nmol/kg, day 9 after administration",−29.6 ± 4.7 %
same,rate of change in body weight,"[1]; 100 nmol/kg, day 10 after administration",−31.6 ± 5.3 %
same,rate of change in body weight,"[1]; 100 nmol/kg, day 11 after administration",−33.7 ± 6.3 %
same,rate of change in body weight,"[1]; 100 nmol/kg, day 12 after administration",−34.4 ± 7.1 %
same,rate of change in body weight,"[1]; 100 nmol/kg, day 13 after administration",−35.6 ± 6.2 %
same,rate of change in body weight,"[1]; 100 nmol/kg, day 14 after administration",−36.7 ± 5.7 %
same,rate of change in body weight,"[1]; 100 nmol/kg, day 15 after administration",−35.7 ± 5.6 %
same,rate of change in body weight,"[1]; 100 nmol/kg, day 17 after administration",−38.2 ± 6.2 %
same,rate of change in body weight,"[1]; 100 nmol/kg, day 18 after administration",−37.8 ± 6.5 %
same,rate of change in body weight,"[1]; 100 nmol/kg, day 19 after administration",−38.5 ± 6.5 %
same,rate of change in body weight,"[1]; 100 nmol/kg, day 20 after administration",−39 ± 6.5 %
same,rate of change in body weight,"[1]; 100 nmol/kg, day 21 after administration",−37.4 ± 6.6 %
same,rate of change in body weight,"[1]; 100 nmol/kg, day 22 after administration",−38.3 ± 6.2 %
same,rate of change in body weight,"[1]; 100 nmol/kg, day 23 after administration",−38 ± 5.9 %
same,rate of change in body weight,"[1]; 100 nmol/kg, day 24 after administration",−36.8 ± 5.8 %
same,rate of change in body weight,"[1]; 100 nmol/kg, day 25 after administration",−38.6 ± 5.7 %
same,rate of change in body weight,"[1]; 100 nmol/kg, day 26 after administration",−38.9 ± 6 %
same,rate of change in body weight,"[1]; 100 nmol/kg, day 27 after administration",−36.8 ± 5.3 %
same,rate of change in body weight,"[1]; 100 nmol/kg, day 28 after administration",−37.9 ± 5.7 %
same,body weight-reducing effect on high-fat food-induced-obesity mice,"[1]; doses of 3, 10 and 100 nmol/kg",significant body weight-reducing effect
same,"viscera/brain ratio, Epididymal fat",[2]; 3 nmol/kg,254.6 ± 113.4 %
same,"viscera/brain ratio, Inguinal fat",[2]; 3 nmol/kg,281.5 ± 140.1 %
same,"viscera/brain ratio, Mesenteric fat",[2]; 3 nmol/kg,84.8 ± 41.3 %
same,"viscera/brain ratio, Perirenal fat",[2]; 3 nmol/kg,159.2 ± 87.6 %
same,"viscera/brain ratio, Scapular fat",[2]; 3 nmol/kg,48 ± 15.3%
same,"viscera/brain ratio, Subcutaneous fat",[2]; 3 nmol/kg,120 ± 62 %
same,"viscera/brain ratio, Epididymal fat",[2]; 10 nmol/kg,211.7 ± 80.7 %
same,"viscera/brain ratio, Inguinal fat",[2]; 10 nmol/kg,194.4 ± 86.2 %
same,"viscera/brain ratio, Mesenteric fat",[2]; 10 nmol/kg,53.3 ± 14.6 %
same,"viscera/brain ratio, Perirenal fat",[2]; 10 nmol/kg,109.4 ± 57.1 %
same,"viscera/brain ratio, Scapular fat",[2]; 10 nmol/kg,42.5 ± 17^ %
same,"viscera/brain ratio, Subcutaneous fat",[2]; 10 nmol/kg,122 ± 73.2 %
same,"viscera/brain ratio, Epididymal fat",[2]; 100 nmol/kg,102.9 ± 32.2 %
same,"viscera/brain ratio, Inguinal fat",[2]; 100 nmol/kg,92 ± 34.5 %
same,"viscera/brain ratio, Mesenteric fat",[2]; 100 nmol/kg,27.4 ± 11.1 %
same,"viscera/brain ratio, Perirenal fat",[2]; 100 nmol/kg,46.6 ± 18.2 %
same,"viscera/brain ratio, Scapular fat",[2]; 100 nmol/kg,32.3 ± 7%
same,"viscera/brain ratio, Subcutaneous fat",[2]; 100 nmol/kg,57.1 ± 21.2 %
same,content of fat of each part (except scapular fat) relative to placebo group,[2]; all dose test groups,significantly reduced
